Measurements: ChEMBL document CHEMBL4425184, “C15-methoxyphenylated 18-deoxy-herbimycin A analogues, their in vitro anticancer activity and heat shock protein 90 binding affinity” (Bioorg Med Chem Lett, 2016)
pIC50: −log10 of the molar value.

Tests used:
[1] = biological target: T1, Heat shock protein HSP 90-alpha (Homo sapiens, UniProt P07900); experiment: Displacement of fluorescent labelled-VER00051001 from N-terminal ATP-binding site of human recombinant HSP90A expressed in Escherichia coli measured after 29 hrs by fluorescence polarization assay
MCF7 = experiment: Antiproliferative activity against human MCF7 assessed as reduction in cell viability measured after 96 hrs by MTT assay; type: functional, cell-based; settings: MCF7, 96 h
SW1990 = experiment: Antiproliferative activity against human SW1990 assessed as reduction in cell viability measured after 96 hrs by MTT assay; type: functional, cell-based; settings: SW1990, 96 h
[2] = biological target: T1, Heat shock protein HSP 90-alpha; experiment: Displacement of fluorescent labelled-VER00051001 from N-terminal ATP-binding site of human recombinant HSP90A expressed in Escherichia coli measured after 20 hrs by fluorescence polarization assay
[3] = biological target: T1, Heat shock protein HSP 90-alpha; experiment: Displacement of fluorescent labelled-VER00051001 from N-terminal ATP-binding site of human recombinant HSP90A expressed in Escherichia coli measured after 44 hrs by fluorescence polarization assay
A2780 = experiment: Antiproliferative activity against human A2780 assessed as reduction in cell viability measured after 96 hrs by MTT assay; type: functional, cell-based; settings: A2780, 96 h
[4] = biological target: T1, Heat shock protein HSP 90-alpha; experiment: Displacement of fluorescent labelled-VER00051001 from N-terminal ATP-binding site of human recombinant HSP90A expressed in Escherichia coli measured after 32 hrs by fluorescence polarization assay
A-375 = experiment: Antiproliferative activity against human A375 assessed as reduction in cell viability measured after 96 hrs by MTT assay; type: functional, cell-based; settings: A-375, 96 h
BGC-823 = experiment: Antiproliferative activity against human BGC823 assessed as reduction in cell viability measured after 96 hrs by MTT assay; type: functional, cell-based; settings: BGC-823, 96 h
HCT-116 = experiment: Antiproliferative activity against human HCT116 assessed as reduction in cell viability measured after 96 hrs by MTT assay; type: functional, cell-based; settings: HCT-116, 96 h
[5] = biological target: T1, Heat shock protein HSP 90-alpha; experiment: Displacement of fluorescent labelled-VER00051001 from N-terminal ATP-binding site of human recombinant HSP90A expressed in Escherichia coli measured after 48 hrs by fluorescence polarization assay

| Compound | pIC50 [1] | pIC50 (MCF7) | pIC50 (SW1990) | pIC50 [2] | pIC50 [3] | pIC50 (A2780) | pIC50 [4] | pIC50 (A-375) | pIC50 (BGC-823) | pIC50 (HCT-116) | pIC50 [5] |
| --- | --- | --- | --- | --- | --- | --- | --- | --- | --- | --- | --- |
| COc1ccc([C@H]2c3cccc(c3O)NC(=O)/C(C)=C/CC[C@H](OC)[C@@H](OC(N)=O)/C(C)=C/[C@H](C)[C@@H](O)[C@@H](OC)C[C@@H]2C)cc1 | < 6.00 | < 4.70 | < 4.70 | < 6.00 | < 6.00 | < 4.70 | < 6.00 | < 4.70 | < 4.70 | < 4.70 | < 6.00 |
| CO[C@H]1/C=C\C=C(/C)C(=O)NC2=CC(=O)C=C(C2=O)[C@H](OC)[C@@H](C)C[C@H](OC)[C@H](O)[C@@H](C)/C=C(\C)[C@@H]1OC(N)=O [HERBIMYCIN C] | 7.71 | 5.29 | 5.06 | 7.65 | 7.74 | 5.52 | 7.73 | 5.61 | 5.40 | 5.03 | 7.77 |
| COc1ccc([C@H]2c3cccc(c3O)NC(=O)/C(C)=C/C=C\[C@H](OC)[C@@H](OC(N)=O)/C(C)=C/[C@H](C)[C@@H](O)[C@@H](OC)C[C@@H]2C)cc1 | 7.23 | 6.35 | 6.10 | 7.19 | 7.25 | 6.33 | 7.25 | 6.35 | 6.20 | 6.36 | 7.28 |
| COc1ccc([C@H]2c3cccc(c3O)NC(=O)/C(C)=C/C=C\[C@H](OC)[C@@H](OC(N)=O)/C(C)=C/[C@H](C)[C@@H](OC)[C@@H](OC)C[C@@H]2C)cc1 | 6.99 | 5.02 | 5.47 | 6.92 | 7.01 | 5.62 | 7.00 | 5.59 | 5.19 | 5.20 | 7.01 |
| COc1ccc([C@H]2c3cccc(c3O)NC(=O)/C(C)=C/CC[C@H](OC)[C@@H](OC(N)=O)/C(C)=C/[C@H](C)[C@@H](OC)[C@@H](OC)C[C@@H]2C)cc1 | < 6.00 | < 4.70 | < 4.70 | < 6.00 | < 6.00 | < 4.70 | < 6.00 | < 4.70 | < 4.70 | < 4.70 | < 6.00 |
